Compound: CN(C)C[C@@H]1CCn2cc(c3ccccc32)C2=C(C(=O)NC2=O)c2cn(c3ccccc23)CCO1 [Ruboxistaurin] + O=C(CCCCCCC(=O)Nc1ccccc1)NO [Vorinostat] (partner 1 µM)
Test: relative viability (nuclei count vs DMSO), 5 days (fraction); higher = more cells survive
Outline: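 Cells from lung cancer lines were seeded into 1536-well plates and, one day later, dosed by pin tool. Treatments were either a single drug or a fixed dose of an anchor drug with five library-drug doses (not always all listed) in √10 steps. After 5 days, nuclei were stained in a one-step fixation (final 0.05% Triton X-100, 1% formaldehyde, 1 ug/ml Hoechst) and counted on 4× images, and relative viability is the treated-to-vehicle nuclei ratio, as the median of duplicate plates.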

Cell Line	relative viability (first compound 0.08 µM)	relative viability (first compound 0.8 µM)	relative viability (first compound 2.53 µM)	relative viability (first compound 8 µM)
201T	1	0.961	1.05	1.03
A-427	0.826	0.824	0.872	0.838
ABC-1	1.22	1.11	1.27	1.07
BEN	0.608	0.544	0.6	0.585
CAL-12T	0.937	0.473	0.744	0.941
COR-L23	0.61	0.442	0.522	0.501
COR-L 105	0.96	0.925	0.842	0.816
ChaGo-K-1	0.795	0.712	0.875	0.853
EKVX	0.841	0.65	0.714	0.75
EMC-BAC-2	0.53	0.461	0.523	0.384
EPLC-272H	0.498	0.48	0.357	0.429
H3255	0.717	0.717	0.815	0.898
HARA	0.724	0.494	0.535	0.546
HCC-15	0.975	0.74	0.925	0.833
HCC-44	1.04	1.04	1.1	1.23
HCC-78	0.419	0.368	0.425	0.475
HCC-366	0.407	0.434	0.374	0.307
HCC-827	0.824	0.828	0.839	0.837
HOP-62	0.669	0.648	0.686	0.679
IA-LM	1.13	0.937	0.656	0.939
LC-2-ad	0.747	0.668	0.694	0.694
LCLC-97TM1	0.683	0.691	0.74	0.613
LCLC-103H	0.823	0.743	0.807	0.75
LK-2	0.362	0.323	0.33	0.222

Cell Line	relative viability (first compound 0.08 µM)	relative viability (first compound 0.8 µM)	relative viability (first compound 2.53 µM)	relative viability (first compound 8 µM)
LOU-NH91	0.954	0.868	0.958	0.878
LU99A	0.497	0.442	0.433	0.416
LXF-289	0.858	0.787	0.777	0.918
NCI-H23	0.425	0.564	0.548	0.453
NCI-H322M	0.878	0.753	0.737	0.556
NCI-H358	0.865	0.659	0.768	0.666
NCI-H441	0.953	0.989	0.787	0.724
NCI-H460	0.859	0.651	0.711	0.316
NCI-H520	0.883	0.723	0.735	0.672
NCI-H522	1.01	0.9	1.05	0.931
NCI-H596	0.817	0.428	0.578	0.576
NCI-H647	0.673	0.447	0.725	0.719
NCI-H650	0.456	0.383	0.454	0.717
NCI-H661	0.869	0.773	0.781	0.94
NCI-H727	1.1	1.14	1.13	1.28
NCI-H838	0.813	0.665	0.742	0.734
NCI-H1355	0.693	0.604	0.62	0.583
NCI-H1395	0.813	0.739	0.707	0.688
NCI-H1437	0.834	0.724	0.825	0.798
NCI-H1650	0.676	0.554	0.685	0.569
NCI-H1651	0.54	0.573	0.611	0.499
NCI-H1666	0.998	1.1	1.08	1.1
NCI-H1734	0.861	0.714	0.815	0.624
NCI-H1755	0.702	0.849	0.856	0.811

Cell Line	relative viability (first compound 0.08 µM)	relative viability (first compound 0.8 µM)	relative viability (first compound 2.53 µM)	relative viability (first compound 8 µM)
NCI-H1793	0.87	–	1.08	0.821
NCI-H1915	0.473	0.526	0.513	0.464
NCI-H1944	0.552	0.552	0.558	0.427
NCI-H1975	0.802	0.696	0.698	0.682
NCI-H1993	0.856	0.711	0.727	0.542
NCI-H2009	0.794	0.7	0.756	0.821
NCI-H2023	0.676	0.546	0.667	0.441
NCI-H2085	0.914	0.82	0.842	0.815
NCI-H2087	0.977	0.672	0.723	0.975
NCI-H2126	0.844	0.636	0.871	0.621
NCI-H2170	0.856	0.775	0.854	0.855
NCI-H2228	0.924	0.424	0.588	0.559
NCI-H2347	0.621	0.679	0.65	0.561
NCI-H2405	1.08	0.988	0.97	0.982
NCI-H3122	1.14	0.948	1.03	1.3
PC-3 [JPC-3]	0.895	0.917	0.839	0.837
PC-14	0.892	0.668	0.785	0.648
RERF-LC-KJ	0.663	0.623	0.675	0.644
SK-LU-1	0.946	0.722	0.776	0.657
SK-MES-1	1.11	1.03	1.03	0.95
SW 900	0.738	0.47	0.603	0.496
SW 1573	0.756	0.413	0.809	0.698
UMC-11	0.41	0.377	0.388	0.289

Reference: the supplement of paper PMC10307832
